Experiments:
[1] = tested on: LN229 human glioblastoma; experiment: MTT cell viability assay, LN229; type: cell-based; settings: 72 h
Excerpt: (§1) Thus, care must be taken when comparing their biological activities with those of our previous studies, even with the same cell line, because the covalent vs. non‐covalent combination of drugs might imply different mechanisms of action in the cell.44 Here, we studied the in vitro activity of ruthenacarborane 3, i. e. free acid, and its 8‐hydroxyquinolyl (4) and 4‐{(7‐chloroquinolin‐4‐yl)oxy}butanol‐1‐yl (5) esters, against a panel of cancer cell lines (B16 mouse melanoma, A375 human skin melanoma, MCF‐7 human breast adenocarcinoma, LN229 human glioblastoma, U251 human glioma). Human fibroblast cell line MRC‐5, murine microglial cell line BV‐2 as well as peritoneal exudate cells (Mph), were chosen as models for non‐malignant cells. […] On the other side, we wanted to assess the reproducibility of the viability data, under either controlled (with BSA) or uncontrolled (without BSA) conditions, in two sets of independent assays. […] Cells were exposed to 3–5 for 72 h, after which cell viability was determined via 3‐(4,5‐dimethylthiazol‐2‐yl)‐2,5‐diphenyltetrazolium bromide (MTT) and crystal violet (CV) assays, in parallel (Table 2). Cisplatin was also tested as reference.
(§2) Preparation of drug solutions. […] Stock solution of cisplatin was prepared in DMF (10 mM) immediately before use. A stock solution of BSA in PBS was prepared at 1.28 mM concentration, and stored at 4 °C in the dark. […] Alternatively, 3 or 4 (DMSO stock solution) were added to the BSA solution in PBS, always with a 10 : 1 molar ratio of BSA to ruthenacarborane. The BSA−ruthenacarborane solutions were incubated 0.5–1 h at room temperature, then diluted with cell culture medium to the desired final concentrations. Final concentrations of 3 and 4 were the same as for the BSA‐free formulation. Final DMSO was 0.02–0.5 vol %.
(§3) Colorimetric assays for cellular viability. […] For counting the number of attached (viable) cells, cells were fixed with 4 % (w/v) paraformaldehyde for 10 min at room temperature, and subsequently stained for 15 min with […] crystal violet (CV) solution. Cells were then washed with tap water, dried in air, and the CV dye was dissolved in 33 % (w/v) acetic acid solution. For the detection of mitochondrial respiration, cells were cultivated in MTT staining solution (0.5 mg mL^−1) for approximately 1 h. The dye was then discarded, and the formed formazan (purple) was dissolved in DMSO. The absorbance was measured with an automated microplate reader at λmax 540 nm, with the reference λmax 670 nm. Untreated cells or cells treated only with BSA (control) were also measured, as reference for BSA‐free and BSA‐containing drug formulations, respectively. […] Cell viability is expressed as percentage (%) relative to control (untreated cultures).58 Experiments were run in three independent replicates. […]

[2] = tested on: B16 mouse melanoma; experiment: Crystal violet (CV) cell viability assay, B16; type: cell-based; settings: 72 h
Excerpt: as §1, §2, §3

[3] = tested on: A375 human skin melanoma; experiment: Crystal violet (CV) cell viability assay, A375; type: cell-based; settings: 72 h
Excerpt: as §1, §2, §3

[4] = tested on: B16 mouse melanoma; experiment: MTT cell viability assay, B16; type: cell-based; settings: 72 h
Excerpt: as §1, §2, §3

[5] = tested on: A375 human skin melanoma; experiment: MTT cell viability assay, A375; type: cell-based; settings: 72 h
Excerpt: as §1, §2, §3

[6] = tested on: U251 human glioma; experiment: MTT cell viability assay, U251; type: cell-based; settings: 72 h
Excerpt: as §1, §2, §3

[7] = tested on: U251 human glioma; experiment: Crystal violet (CV) cell viability assay, U251; type: cell-based; settings: read-out: IC50 U251
Excerpt: as §1, §2
(§4) Colorimetric assays for cellular viability. […] For counting the number of attached (viable) cells, cells were fixed with 4 % (w/v) paraformaldehyde for 10 min at room temperature, and subsequently stained for 15 min with […] crystal violet (CV) solution. Cells were then washed with tap water, dried in air, and the CV dye was dissolved in 33 % (w/v) acetic acid solution. For the detection of mitochondrial respiration, cells were cultivated in MTT staining solution (0.5 mg mL^−1) for approximately 1 h. The dye was then discarded, and the formed formazan (purple) was dissolved in DMSO. The absorbance was measured with an automated microplate reader at λmax 540 nm, with the reference λmax 670 nm. Untreated cells or cells treated only with BSA (control) were also measured, as reference for BSA‐free and BSA‐containing drug formulations, respectively. For determination of the role of autophagy specific inhibitors, CQ or 3‐MA, were applied at a concentration of 20 μM and 0.5 mM, respectively, and the cells were stained with CV dye. Cell viability is expressed as percentage (%) relative to control (untreated cultures).58 Experiments were run in three independent replicates. […] Non‐linear regression analyses of the obtained results was done using GraphPad Prism software to calculate IC50 values.
(§5) mouse microglial cell line BV‐2 was a kind gift from Dr. Irena Lavrnja, Institute for Biological Research
(§6) “Siniša Stanković” (University of Belgrade).

[8] = tested on: MCF‐7 human breast adenocarcinoma; experiment: MTT cell viability assay, MCF‐7; type: cell-based; settings: 72 h
Excerpt: as §1, §2, §3

[9] = tested on: MCF‐7 human breast adenocarcinoma; experiment: Crystal violet (CV) cell viability assay, MCF‐7; type: cell-based; settings: 72 h
Excerpt: as §1, §2, §3

[10] = tested on: LN229 human glioblastoma; experiment: Crystal violet (CV) cell viability assay, LN229; type: cell-based; settings: read-out: IC50 LN229
Excerpt: as §1, §2, §4, §5, §6

[11] = tested on: murine microglial cell line BV‐2; experiment: Crystal violet (CV) cell viability assay, BV‐2; type: cell-based, mouse; settings: 72 h
Excerpt: as §1
(§7) Preparation of drug solutions. […] Stock solution of cisplatin was prepared in DMF (10 mM) immediately before use. A stock solution of BSA in PBS was prepared at 1.28 mM concentration, and stored at 4 °C in the dark. […] Alternatively, 3 or 4 (DMSO stock solution) were added to the BSA solution in PBS, always with a 10 : 1 molar ratio of BSA to ruthenacarborane. […]
(§8) Colorimetric assays for cellular viability. […] The absorbance was measured with an automated microplate reader at λmax 540 nm, with the reference λmax 670 nm. Untreated cells or cells treated only with BSA (control) were also measured, as reference for BSA‐free and BSA‐containing drug formulations, respectively. […] Cell viability is expressed as percentage (%) relative to control (untreated cultures).58 Experiments were run in three independent replicates. […]

[12] = tested on: U251 and LN229 cell lines; experiment: Cell viability assays (MTT, CV), summary for glioma and glioblastoma lines; type: cell-based, human; settings: concentration range tested up to 100 μM, 72 h
Excerpt: as §1, §7, §8

[13] = tested on: murine microglial cell line BV‐2; experiment: MTT cell viability assay, BV‐2; type: cell-based, mouse; settings: 72 h
Excerpt: as §1, §7, §8

[14] = tested on: Human fibroblast cell line MRC‐5; experiment: Crystal violet (CV) cell viability assay, MRC‐5; type: cell-based; settings: 72 h
Excerpt: as §1, §7, §8

[15] = tested on: primary non‐malignant mouse macrophages (Mph); experiment: Crystal violet (CV) cell viability assay, peritoneal macrophages (Mph); type: cell-based; settings: 72 h
Excerpt: as §1, §7, §8

[16] = tested on: Human fibroblast cell line MRC‐5; experiment: MTT cell viability assay, MRC‐5; type: cell-based; settings: 72 h
Excerpt: as §1, §7, §8

Row | Compound | IC50 [1] [µM] | IC50 [2] [µM] | IC50 [3] [µM] | IC50 [4] [µM] | IC50 [5] [µM] | IC50 [6] [µM] | IC50 ([7]; CV assay, 72 h) [µM] | IC50 [8] [µM] | IC50 [9] [µM] | IC50 ([10]; CV assay, 72 h) [µM] | IC50 [11] [µM] | activity against LN229 and U251 (in words) [12] | IC50 [13] [µM] | IC50 [14] [µM] | IC50 [15] [µM] | IC50 [16] [µM] | IC50 ([7]; Homo sapiens, U-251, 72 h) [µM] | IC50 ([10]; Homo sapiens, LN-229, 72 h) [µM]
1 | N.N.[Cl][Pt][Cl] [Cisplatin, reference compound] | 4.1 ± 0.4 | 10.9 ± 1.2 | 3.7 ± 0.1 | 6 ± 0.4 | 3.3 ± 0.4 | 0.4 ± 0.1 | 0.8 ± 0.3 | 3 ± 0.5 | 3.5 ± 0.2 | 4.1 ± 0.6 | – | – | – | – | – | – | – | –
2 | closo ‐[3‐(η^6‐p‐Cymene)‐1‐[(7‐chloroquinolin‐4‐yl)oxy]butyl acetate)‐3,1,2‐RuC2B9H10] [Compound 5] | 86.7 ± 3 | 33.7 ± 2.9 | > 100 | 9.5 ± 1.8 | 43.4 ± 0.3 | > 100 | > 100 | 15.5 ± 1.5 | 34.1 ± 0.5 | 82.5 ± 7.6 | > 100 | inactive | 12.3 ± 0.1 | > 100 | > 100 | > 100 | – | –
3 | CCN(CC)CCCC(C)Nc1ccnc2cc(Cl)ccc12 (stereo not shown) [CQ, chloroquine, reference compound] | – | – | – | – | – | – | – | – | – | – | – | – | – | – | – | – | 30 to 50 | 30 to 50

From paper PMC6973020, “Quinoline‐Conjugated Ruthenacarboranes: Toward Hybrid Drugs with a Dual Mode of Action” (Chemmedchem, 2019)
